We go through one molecule from patent US20060147898A1, “Cell microchip” (NITTO DENKO CORPORATION, priority 2003, published 2006).

The assay deals with rat breast cancer cell MTF7. Briefly: Action of 5ALA on MTF7 cells in the cell microchip (fluorescence and growth after Ar ion laser irradiation). The class given is cell-based. On the procedure: The cell microchip prepared in Example 1 was used to examine the action of […] (5ALA) on rat breast cancer cell MTF7 according to a method described in Journal of Japan Society for Laser Surgery and Medicine, Vol. 17, No. 1, pp. 1-10 (1996).
MTF7 was provided by Dr. Stephan P. Tomasovic, M. D. Anderson Cancer Center, […], US. MTF7 was proliferated in an a-MEM medium (Sigma Corporation) supplemented with 10% fetal calf serum (FCS) in an incubator for cell culture (37° C. in 5% CO2 under humidity).
The cell microchip (FIG. 4) prepared in Example 1 was placed in a 90 mmf Petri dish, and the flow channel (A) 33, flow channel (B) 34 and flow channel (C) 35 were filled with the above medium. […]
Then the cell microchip wherein the MTF7 cells had been proliferated was removed from the Petri dish, and the above medium was injected via a micro pump into the liquid reservoir 37 of the flow channel (A) 33, and while the above medium containing 5ALA manufactured by Sigma Corporation) at various concentrations (25, 50, 100, 200 and 400 mg/ml) was injected into the liquid reservoir 37 of the flow channel (B) 34, the cells were observed under a fluorescence microscope equipped with the incubator. […] The cells into which the 5ALA-containing medium had not been injected emitted no fluorescence.

For `NCC(=O)CCC(=O)O` [5ALA, d-aminolevulinic acid], under “MTF7 cells at 3-pronged junction, medium containing 5ALA at 25, 50, 100, 200 and 400 mg/ml, irradiated with Ar ion laser at 488 nm, 200 mW”, the “emission of fluorescence under a fluorescence microscope” value was “emission of fluorescence was observed”. Besides, for the setting “MTF7 cells emitting fluorescence (5ALA-containing medium), observed with time under a microscope after Ar ion laser irradiation at 488 nm”, the “cell growth / survival on continued culture after laser irradiation” value was “terminated their growth and fell eventually into death”.
